The source of these data is ChEMBL document CHEMBL1131254, “Molecular modeling studies of the DNA-topoisomerase I ternary cleavable complex with camptothecin” (J Med Chem, 1998).

Active and inactive are the calls of the source. No cut-off for these calls is given here.

The first experiment concerns the target T1, DNA topoisomerase 1 (Homo sapiens) (UniProt P11387).
T1 sequence (whole entry): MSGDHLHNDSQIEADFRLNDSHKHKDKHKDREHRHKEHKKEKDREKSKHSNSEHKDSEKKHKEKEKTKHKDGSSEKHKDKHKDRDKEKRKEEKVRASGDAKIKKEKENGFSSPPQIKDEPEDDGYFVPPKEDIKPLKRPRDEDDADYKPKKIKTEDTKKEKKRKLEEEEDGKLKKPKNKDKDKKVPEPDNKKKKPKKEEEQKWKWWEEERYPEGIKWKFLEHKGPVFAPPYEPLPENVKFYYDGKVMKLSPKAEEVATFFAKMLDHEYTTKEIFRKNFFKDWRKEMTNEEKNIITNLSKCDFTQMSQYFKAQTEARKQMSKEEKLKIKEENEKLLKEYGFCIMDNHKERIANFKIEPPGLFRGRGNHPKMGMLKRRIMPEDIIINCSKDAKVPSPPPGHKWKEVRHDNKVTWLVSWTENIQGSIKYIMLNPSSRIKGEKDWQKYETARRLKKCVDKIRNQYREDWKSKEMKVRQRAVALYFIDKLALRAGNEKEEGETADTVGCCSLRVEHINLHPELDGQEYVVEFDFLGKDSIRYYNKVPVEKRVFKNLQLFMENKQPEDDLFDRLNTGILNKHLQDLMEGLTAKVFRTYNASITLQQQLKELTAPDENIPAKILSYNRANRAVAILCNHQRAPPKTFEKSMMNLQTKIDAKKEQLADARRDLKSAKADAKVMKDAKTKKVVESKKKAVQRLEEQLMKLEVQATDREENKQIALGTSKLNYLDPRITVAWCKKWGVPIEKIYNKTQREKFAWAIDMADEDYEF
Put plainly: The compound was tested for top1-induced DNA cleavage activity; + indicates comparable to CPT. Format: functional.
For the compound `CC[C@@]1(O)C(=O)OCc2c1cc1n(c2=O)Cc2c-1nc1cnc(CN)cc1c2C`, the inhibition result is recorded as “comparable to CPT”.

In a further experiment the target is T1, DNA topoisomerase 1 (Homo sapiens). As to the kind of experiment: The compound was tested for top1-induced DNA cleavage activity; ++ indicates more potent than CPT. It counts as functional.
For the compound `CC[C@@]1(O)C(=O)OCc2c1cc1n(c2=O)Cc2cc3cc(N)c(O)cc3nc2-1`, the inhibition result is recorded as “more potent than CPT”.

For the compound `CC[C@@]1(O)C(=O)OCc2c1cc1n(c2=O)Cc2c-1nc1cc3c(cc1c2CN1CCN(C)CC1)OCO3`, the inhibition result is listed as “more potent than CPT”.

Take `CC[C@@]1(O)C(=O)OCc2c1cc1n(c2=O)Cc2c-1nc1cc3c(cc1c2CN1CCN(C)CC1)OCCO3`: the inhibition result is reported as “more potent than CPT”.

The target is the same in another experiment. Put plainly: The compound was tested for top1-induced DNA cleavage activity; - indicates inactive. Format: functional.
`CC[C@H]1C(=O)OCc2c1cc1n(c2=O)Cc2cc3ccccc3nc2-1`: the inhibition result is “inactive”.

As for `CC[C@]1(O)C(=O)OCc2c1cc1n(c2=O)Cc2cc3ccccc3nc2-1`, the inhibition result was “inactive”.

With `CC[C@@]1(O)C(=O)OCc2c1ccc1c2Cc2cc3ccccc3nc2-1`, the inhibition entry is “inactive”.

With `CC[C@@]1(O)C(=O)OCc2c1cc1n(c2=O)Cc2cc3cc(OC)c(OC)cc3nc2-1` (stereo in doubt; form 2), the inhibition entry was “inactive”.

Take `CC[C@@]1(O)C(=O)OCc2c1cc1n(c2=O)Cc2cc3cc(OC)c(OC)cc3nc2-1` (stereo in doubt; form 3): the inhibition entry is “inactive”.

Turning to `CC[C@@]1(O)C(=O)OCc2cc3c(cc21)-c1nc2ccccc2cc1C3`, the inhibition entry is “inactive”.

As to `CC[C@@]1(O)C(=O)OCc2c1cc1n(c2=O)Cc2cc3cc(OC)c(OC)cc3nc2-1` (stereo in doubt; form 1), the inhibition entry was “inactive”.
